Measurements as given in US20060002870A1 (priority 2004, published 2006).

Tested on: skin
Assay: Clinical study of intensity and tonality of self-tanning with merospheres, empty liposomes and ursolic acid (Chromameter, forearms)
Format: in vivo, human
Details: added to 3% DHA, 5% pentylene glycol; 5 hours and 24 hours; FIG. 7
Experimental: This clinical study is designed to investigate the intensity and tonality of self-tanning with a formulation containing different combination of merospheres, empty liposomes and ursolic acid. The following materials are tested: A total of […] panelists participate in the study. The panel is divided in seven groups of 7-8 corresponding to the seven test materials. The panelists apply the “control” formulation containing 3% DHA-PG on the right arm and the assigned test material on the other arm. For each panelist exact amounts (800 μl each) of the test materials are dispensed on the forearms and blended in by the panelists. Color measurements are obtained with the Chromameter before treatment and 5 hours and 24 hours. Decrease in reflectance and increase in red coloration and yellow coloration (ΔL*, Δa* and Δb* values) obtained from the Chromameter are calculated as compared to baseline skin color. Total color change ΔE* is calculated for each time point as follows: ΔE*={overscore (V(ΔL*)^2+(Δa*)^2+(Δb)}*)^2 For assessing the tonality, Chroma (ΔC*) is calculated and plotted against reflectance (ΔL* values) within the “Natural Universe of Tan”. This Natural Universe is the range of color of tan obtained by multiple or single exposures to the sun.

C[C@H]1[C@H](C)CC[C@]2(C(=O)O)CC[C@]3(C)C(=CC[C@@H]4[C@@]5(C)CC[C@H](O)C(C)(C)[C@@H]5CC[C@]43C)[C@H]12 [ursolic acid]
Self-tanning effect (ΔE*): neither addition of empty liposomes nor ursolic acid alone changes the self-tanning effect
